Data on 2 substances can be found in patent US20060121480A1, “Synergistic compositions for the prevention and treatment of acquired immunodeficiency syndrome” (priority 2002, published 2006).

The subject of experiment [1] is HIV-1 301714 (adult). The experiment can be described thus: HIV-1 P24 antigen in PBMC coculture, continuous drug exposure. The class given is cell-based. How it is done:
(§1) Viruses: 6 viruses were titrated. The TCID50/ml of each virus isolate was as the follows:
(§2) 512.2 μl of HIV-1 302076 was added into 9487.8 μl R-3 medium. 512.2 μl of HIV-1 302077 was added into 9487.8 μl R-3 medium. 126.3 μl of HIV-1 302143 was added into 9873.7 μl R-3 medium. 1002.4 μl of HIV-1 301714 was added into 8997.6 R-3 medium. 2000 μl of HIV-1m 2054 was added into 8000.0 μl R-3 medium. 4000 μl of HTLV-IIIB was added into 6000 R-3 μl medium. Viruses were diluted to 100 TCID50 virus stock: 2.5 ml of 2000 TCID50/ml was added to 2.5 ml of R-3 medium, this is 100 TCID50 (in 100 μl) stock. PBMC: Peripheral blood mononuclear cells (PBMC) were separated from HI-1-uninfected donor by Ficoll-hypaque density gradient centrifugation. PBMC were grown in RPMI 1640 supplemented with 20% fetal calf serum, 5% IL-2 and 5 μg/ml PHA (R-3 medium).
(§3) The final 3 tubes are added with 100 μPBS. […] The tubes were incubated at 37° C. overnight.
(§4) The cells were washed 3 times in PBS.

The test system of experiment [2] is HIV-1 2054 (adult). The description is as above. The class given is cell-based. How it is done:
as §1, §2, §3, §4

Experiment [3] concerns HIV-1 301714 (adult). The experiment in a line: HIV-1 P24 antigen in PBMC coculture, drug exposure at infection and for 12 hours thereafter. Format: cell-based. How it is done:
as §1, §2
(§5) The above step was repeated for 1:156.25, 781.25, 3906.25 and 19531.25 dilutions. Finally, the concentrations used in the experiment were 2, 0.4, 0.08, 0.016, 0.0032, 0.00064 μg/ml.
(§6) The above step was repeated for 1:625, 1:3125, 1:15625, 1:78125 and 390625 dilution. Finally, the concentrations used in the experiment were 1.
as §3, §4

For experiment [4], the system named is HIV-1 2054 (adult). The description is as above. The class given is cell-based. How it is done: as §1, §2, §5, §6, §3, §4
Experiment [5] deals with HIV-1 302143 (pediatric). Conditions: PBMC. How it is done:
(§7) Viruses: 6 viruses were titrated.
as §2, §5
(§8) The above step was repeated for 1:625, 1:3125, 1:15625, 1:78125 and 390625 dilution. Finally, the concentrations used in the experiment were 1. 0.2.0.04, 0.008, 0.0016, 0.00032 μg/ml.
(§9) The final three tubes are added to 100 μl PBS. […] The final 3 tubes are added with 100 μPBS. […] The final 3 tubes are added to 100 μl PBS. 100 μl of 100 TCID50 virus stock were aliquoted into all 63 tubes. 2×10^6 PBMC was added in 1.8 ml of R-3 medium (total 2.0 ml per tube). The tubes were incubated at 37° C. overnight.
(§10) The cells were washed 3 times in PBS. […] HIV-1 P24 antigen measurement was performed in the supernatant of each coculture well on days 4 and 7.0.5 ml cells (10^6/ml) in R-3 medium were added on day 4.

The subject of experiment [6] is HTLV-IIIB (lab). Conditions: PBMC. How it is done: as §7, §2, §5, §8, §9, §10
The test system of experiment [7] is HIV-1 302077 (pediatric). Conditions: PBMC. How it is done:
as §7, §2, §5, §8, §9, §10

The subject of experiment [8] is HIV-1 302076 (pediatric). Conditions: PBMC. How it is done:
as §7, §2, §5, §8, §9, §10

For experiment [9], the system named is HIV-1 302143 (pediatric). The following applies: PBMC. How it is done:
as §7, §2, §9, §10
The source holds these as a separate data set.

Experiment [10] concerns HTLV-IIIB (lab). Conditions: PBMC. How it is done:
as §7, §2, §9, §10
The source holds these as a separate data set.

Experiment [11] has as its system HIV-1 302077 (pediatric). Conditions: PBMC. How it is done: as §7, §2, §9, §10
The source holds these as a separate data set.

Experiment [12] has as its system HIV-1 302076 (pediatric). Conditions: PBMC. How it is done:
as §7, §2, §9, §10
This is another data set of the same source.

Where [13] appears, read: HIV-1 301714, day 4, continuous drug exposure.
Where [14] appears, read: HIV-1 301714, day 7, continuous drug exposure.
[15] abbreviates: HIV-1 2054, day 4, continuous drug exposure.
The mark [16] stands for this setting: HIV-1 2054, day 7, continuous drug exposure.
Setting [17] is: HIV-1 301714, day 4, drugs removed after 12 hours.
Setting [18] is: HIV-1 301714, day 7, drugs removed after 12 hours.
[19] abbreviates: HIV-1 2054, day 4, drugs removed after 12 hours.
The mark [20] stands for this setting: HIV-1 2054, day 7, drugs removed after 12 hours.
Setting [21] is: day 4, continuous drug exposure.
The mark [22] stands for this setting: day 7, continuous drug exposure.

Like-named read-outs stand apart in the source and are kept apart here.

As usually defined, the IC50 is the concentration at which inhibition is half-maximal. A high value points to lower potency. For “5A8: humanized monoclonal antibody to CD4”, the IC50 amounted to 0.14 µg/mL in the experiment on HIV-1 301714 (adult) [1] (setting [13]); 0.30 µg/mL in the experiment on HIV-1 301714 (adult) [1] (setting [14]); 0.041 µg/mL in the experiment with HIV-1 2054 (adult) [2] (setting [15]); 0.017 µg/mL with HIV-1 2054 (adult) [2] (setting [16]); 0.70 µg/mL in the experiment with HIV-1 301714 (adult) [3] (setting [17]); 1.82 µg/mL in the experiment on HIV-1 301714 (adult) [3] (setting [18]). Further, the IC50 with HIV-1 2054 (adult) [4] (setting [19]) was 0.070 µg/mL; in the experiment with HIV-1 2054 (adult) [4] (setting [20]), 0.13 µg/mL; in the experiment on HIV-1 302143 (pediatric) [5] (HIV-1 302143, day 4, drugs removed after 12 hours), 0.97 µg/mL; with HIV-1 302143 (pediatric) [5] (HIV-1 302143, day 7, drugs removed after 12 hours), greater than 2.0 µg/mL; with HTLV-IIIB (lab) [6] (day 4, drugs removed after 12 hours), 0.44 µg/mL; with HTLV-IIIB (lab) [6] (day 7, drugs removed after 12 hours), 1.30 µg/mL. In addition, the half-inhibitory concentration (IC50) in the experiment with HIV-1 302077 (pediatric) [7] (HIV-1 302077, day 4, drugs removed after 12 hours) amounted to 0.17 µg/mL; in the experiment on HIV-1 302077 (pediatric) [7] (HIV-1 302077, day 7, drugs removed after 12 hours) it was 0.50 µg/mL; with HIV-1 302076 (pediatric) [8] (HIV-1 302076, day 4, drugs removed after 12 hours) it was 0.15 µg/mL; in the experiment with HIV-1 302076 (pediatric) [8] (HIV-1 302076, day 7, drugs removed after 12 hours), 0.65 µg/mL; in the experiment on HIV-1 302143 (pediatric) [9] (HIV-1 302143, day 4, continuous drug exposure), 0.038 µg/mL; in the experiment with HIV-1 302143 (pediatric) [9] (HIV-1 302143, day 7, continuous drug exposure), 0.022 µg/mL. Moreover, the 50% inhibitory concentration (IC50) worked out at 0.19 µg/mL in the experiment with HTLV-IIIB (lab) [10] (setting [21]); 0.16 µg/mL in the experiment on HTLV-IIIB (lab) [10] (setting [22]); 0.14 µg/mL in the experiment on HIV-1 302077 (pediatric) [11] (HIV-1 302077, day 4, continuous drug exposure); 0.067 µg/mL in the experiment with HIV-1 302077 (pediatric) [11] (HIV-1 302077, day 7, continuous drug exposure); 0.10 µg/mL with HIV-1 302076 (pediatric) [12] (HIV-1 302076, day 4, continuous drug exposure); 0.028 µg/mL in the experiment with HIV-1 302076 (pediatric) [12] (HIV-1 302076, day 7, continuous drug exposure).

In the case of enfuvirtide, the concentration for half-maximal inhibition (IC50) in the experiment on HIV-1 301714 (adult) [1] (setting [13]) came out at 0.049 µg/mL; with HIV-1 301714 (adult) [1] (setting [14]), 0.040 µg/mL; in the experiment with HIV-1 2054 (adult) [2] (setting [15]), 0.019 µg/mL; in the experiment with HIV-1 2054 (adult) [2] (setting [16]), 0.16 µg/mL; in the experiment on HIV-1 301714 (adult) [3] (setting [17]) it was 0.20 µg/mL; in the experiment with HIV-1 301714 (adult) [3] (setting [18]), 0.050 µg/mL. Moreover, the half-inhibitory concentration (IC50) in the experiment on HIV-1 2054 (adult) [4] (setting [19]) came to 0.039 µg/mL; in the experiment with HIV-1 2054 (adult) [4] (setting [20]), 0.11 µg/mL; in the experiment with HTLV-IIIB (lab) [10] (setting [21]), 0.017 µg/mL; with HTLV-IIIB (lab) [10] (setting [22]), 0.013 µg/mL.
